Key:
[1] = test system: heart rate in healthy subjects; assay: Thorough QT study, placebo-corrected change-from-baseline HR (ΔΔHR); type: in vivo, human; details: 400 mg moxifloxacin (Treatment C)
[2] = test system: cardiac repolarization (QTcF) in healthy subjects; assay: Thorough QT study, by-time point analysis of ΔΔQTcF; details: for ΔΔQTcF LS Mean: 400 mg moxifloxacin (Treatment C)
Method: The primary objective of this study was to assess the effect of CIN-102 on cardiac repolarization based on baseline and placebo-corrected change in corrected QT interval using Fridericia's formula (QTcF) in healthy subjects using a concentration-QTc analysis (primary analysis). Serial ECGs were extracted from continuous ECG recordings at prespecified time points starting at least one hour prior to dosing and ending approximately 48 hours post-dose in each period.
Primary analysis was based on concentration-QTc modeling of the relationship between plasma drug concentrations and change-from-baseline QTcF (ΔQTcF) with the intent to exclude an effect of placebo-corrected ΔQTcF (ΔΔQTcF) >10 milliseconds (ms) at clinically relevant plasma levels.
The study was a randomized, partially double-blind, active- and placebo-controlled, single dose, four-period, crossover study in healthy subjects 18-55 years of age.
In each treatment period, continuous 12-lead ECGs were recorded starting at least one hour prior to dosing and ending approximately 48 hours post-dose. Twelve-lead ECGs were extracted in up to 10 replicates at the central ECG laboratory (ERT, Philadelphia, PA) at the following time points in each period: at 3 time points within one hour prior to dosing (−45, −30 and −15 minutes) and at 0.5, 1, 1.5, 2, 2.5, 3, 4, 5, 6, 8, 12, 24, 36, and 48 hours after each dose. Subjects were supinely resting for at least 10 minutes before and 5 minutes after each time point. When ECG extractions coincided with safety, ECGs, vital signs assessment, and blood draws, procedures were carried out in said order. No PK or other laboratory draws were performed and the subject was not approached until at least 5 minutes had elapsed after the 5-minute window for 12-lead ECG extraction for QT analysis.
ECG intervals were measured by the core laboratory in a blinded manner using the Early Precision QT technique (EPQT). The ECG database was locked before any statistical analysis was undertaken.
At each nominal time point specified in the protocol, up to 10 ECG replicates were extracted with TQT Plus methods. All readable cardiac cycles from these ECG replicates were assessed for multiple quality metrics, including beat stability, HR changes, noise, and other parameters, and were categorized into high and low confidence rank. All low confidence beats were fully reviewed and adjudicated manually by ECG technicians using pass-fail criteria. The beats found acceptable by manual review were included in the analysis.
An unstructured covariance structure was used to specify the repeated measures at post-dose time points for subject within treatment period. The model also included a subject-specific random effect. Treatment A: 30 mg CIN-102 [representing approximate steady-state therapeutic exposures in subject population] Treatment B: 100 mg CIN-102 [representing potential steady-state supratherapeutic exposures in subjects] Treatment C: 400 mg open-label moxifloxacin.

[3] = Thorough QT study, plasma pharmacokinetics; type: in vivo, human; details: 400 mg single dose, healthy subjects
Excerpt: Blood samples for PK determination were drawn at the same time points immediately after the ECG extractions.

[4] = test system: cardiac conduction (PR interval) in healthy subjects; assay: Thorough QT study, placebo-corrected change-from-baseline PR (ΔΔPR); details: 400 mg moxifloxacin (Treatment C)
Excerpt: The secondary endpoints were: • Change-from-baseline QTcF, HR, PR, QRS intervals (ΔQTcF, ΔHR, ΔPR, and ΔQRS) • Placebo-corrected change-from-baseline HR, PR, and QRS (ΔΔHR, ΔΔPR, ΔΔQRS) • Categorical outliers for QTcF, HR, PR, and QRS • Frequency of treatment-emergent changes of T-wave morphology and U-waves presence
(§1) Categorical T-wave morphology analysis and measurement of PR and QRS intervals were fully performed manually using a semi-automated process in 3 of the 10 ECG replicates at each time point. Final quality control and diagnostic interpretations were performed by the study cardiologist.
An unstructured covariance structure was used to specify the repeated measures at post-dose time points for subject within treatment period. The model also included a subject-specific random effect. Treatment A: 30 mg CIN-102 [representing approximate steady-state therapeutic exposures in subject population]; Treatment B: 100 mg CIN-102 [representing potential steady-state supratherapeutic exposures in subjects]; Treatment C: 400 mg open-label moxifloxacin

healthy subjects = assay: Thorough QT study, categorical outliers and T-wave morphology
Method: Categorical T-wave morphology analysis and measurement of PR and QRS intervals were fully performed manually using a semi-automated process in 3 of the 10 ECG replicates at each time point.
Treatment A: 30 mg CIN-102 [representing approximate steady-state therapeutic exposures in subject population]; Treatment B: 100 mg CIN-102 [representing potential steady-state supratherapeutic exposures in subjects]; Treatment C: 400 mg open-label moxifloxacin; Treatment D: CIN-102 placebo. A subject can appear in more than 1 category. The denominator (Total) is defined as the number of subjects or time points in the QT/QTc population for each treatment.

[5] = test system: cardiac repolarization (QTcF) in healthy subjects; details: human, in vivo
Excerpt: The same linear model was used for moxifloxacin.
The same linear model with a treatment effect-specific intercept as in the concentration-QTc analysis was used in the assay sensitivity analysis for moxifloxacin.

[6] = test system: cardiac conduction (QRS interval) in healthy subjects; assay: Thorough QT study, placebo-corrected change-from-baseline QRS (ΔΔQRS); details: 400 mg moxifloxacin (Treatment C)
Method: as §1
An unstructured covariance structure was used to specify the repeated measures at post-dose time points for subject within treatment period. The model also included a subject-specific random effect.

[7] = 400 mg moxifloxacin (Treatment C), Total 51 subjects
[8] = 400 mg moxifloxacin (Treatment C), Total 762 time points
[9] = Treatment C: 400 mg open-label moxifloxacin, of 51 subjects
[10] = Treatment C: 400 mg open-label moxifloxacin, of 762 time points

With `COc1c(N2C[C@@H]3CCCN[C@@H]3C2)c(F)cc2c(=O)c(C(=O)O)cn(C3CC3)c12` [moxifloxacin] the “ΔΔHR LS Mean” value ([1]; 0.5 H Post Dose) was 1.9 bpm, the “ΔΔHR LS Mean” value ([1]; 1 H Post Dose) was 2.2 bpm and the “ΔΔHR LS Mean” value ([1]; 1.5 H Post Dose) was 1.0 bpm. The “ΔΔHR LS Mean” value ([1]; 2 H Post Dose) was 1.3 bpm, the “ΔΔHR LS Mean” value ([1]; 2.5 H Post Dose) was −0.3 bpm and the “ΔΔHR LS Mean” value ([1]; 3 H Post Dose) was −0.0 bpm. The “ΔΔHR LS Mean” value ([1]; 4 H Post Dose) was 0.7 bpm, the “ΔΔHR LS Mean” value ([1]; 5 H Post Dose) was −0.0 bpm and the “ΔΔHR LS Mean” value ([1]; 6 H Post Dose) was −1.3 bpm. The “ΔΔHR LS Mean” value ([1]; 8 H Post Dose) was 0.7 bpm, the “ΔΔHR LS Mean” value ([1]; 12 H Post Dose) was −1.9 bpm and the “ΔΔHR LS Mean” value ([1]; 24 H Post Dose) was −0.1 bpm. The “ΔΔHR LS Mean” value ([1]; 36 H Post Dose) was −0.3 bpm, the “ΔΔHR LS Mean” value ([1]; 48 H Post Dose) was 0.8 bpm and the “peak LS mean ΔΔQTcF” value ([2]; 400 mg oral moxifloxacin, 3 hours post-dose) was 13.3 ms. For the same compound, the “ΔΔQTcF LS Mean” value ([2]; 0.5 H Post Dose) was 5.8 ms, the “ΔΔQTcF LS Mean” value ([2]; 1 H Post Dose) was 12.2 ms and the “ΔΔQTcF LS Mean” value ([2]; 1.5 H Post Dose) was 10.9 ms. The “ΔΔQTcF LS Mean” value ([2]; 2 H Post Dose) was 11.3 ms, the “ΔΔQTcF LS Mean” value ([2]; 2.5 H Post Dose) was 11.7 ms and the “ΔΔQTcF LS Mean” value ([2]; 3 H Post Dose) was 13.3 ms. The “ΔΔQTcF LS Mean” value ([2]; 4 H Post Dose) was 12.1 ms, the “ΔΔQTcF LS Mean” value ([2]; 5 H Post Dose) was 10.3 ms and the “ΔΔQTcF LS Mean” value ([2]; 6 H Post Dose) was 7.5 ms. The “ΔΔQTcF LS Mean” value ([2]; 8 H Post Dose) was 8.9 ms, the “ΔΔQTcF LS Mean” value ([2]; 12 H Post Dose) was 8.2 ms and the “ΔΔQTcF LS Mean” value ([2]; 24 H Post Dose) was 4.0 ms. For the same compound, the “ΔΔQTcF LS Mean” value ([2]; 36 H Post Dose) was 3.0 ms, the “ΔΔQTcF LS Mean” value ([2]; 48 H Post Dose) was 2.6 ms and the “geometric mean peak moxifloxacin concentration” value [3] was 1552.6 ng/mL. For the same compound, the “ΔΔPR LS Mean” value ([4]; 0.5 H Post Dose) was -3.4 ms, the “ΔΔPR LS Mean” value ([4]; 1 H Post Dose) was -2.9 ms and the “ΔΔPR LS Mean” value ([4]; 1.5 H Post Dose) was -3.6 ms. For the same compound, the “ΔΔPR LS Mean” value ([4]; 2 H Post Dose) was -2.5 ms, the “ΔΔPR LS Mean” value ([4]; 2.5 H Post Dose) was -1.3 ms and the “ΔΔPR LS Mean” value ([4]; 3 H Post Dose) was -2.7 ms. For the same compound, the “ΔΔPR LS Mean” value ([4]; 4 H Post Dose) was -2.0 ms, the “ΔΔPR LS Mean” value ([4]; 5 H Post Dose) was -2.0 ms and the “ΔΔPR LS Mean” value ([4]; 6 H Post Dose) was -3.0 ms. For the same compound, the “ΔΔPR LS Mean” value ([4]; 8 H Post Dose) was -0.9 ms, the “ΔΔPR LS Mean” value ([4]; 12 H Post Dose) was -0.0 ms and the “ΔΔPR LS Mean” value ([4]; 24 H Post Dose) was -2.5 ms. The “ΔΔPR LS Mean” value ([4]; 36 H Post Dose) was 0.9 ms, the “ΔΔPR LS Mean” value ([4]; 48 H Post Dose) was -0.3 ms and the “Subjects with QTcF >450 and <=480 ms, number” value (healthy subjects; [7]) was 6. For the same compound, the “Subjects with QTcF >450 and <=480 ms, percent” value (healthy subjects; [7]) was “(11.8%)”, the “Subjects with QTcF >480 and <=500 ms, number” value (healthy subjects; [7]) was 0 and the “Subjects with QTcF >500 ms, number” value (healthy subjects; [7]) was 0. The “Time points with QTcF >450 and <=480 ms, number” value (healthy subjects; [8]) was 19, the “Time points with QTcF >450 and <=480 ms, percent” value (healthy subjects; [8]) was “(2.5%)” and the “Time points with QTcF >480 and <=500 ms, number” value (healthy subjects; [8]) was 0. The “Time points with QTcF >500 ms, number” value (healthy subjects; [8]) was 0, the “subjects with QTcF >450 and <480 ms” value (healthy subjects; 400 mg moxifloxacin, at 19 time points) was 6 subject(s) and the “QTcF outliers per change-from-baseline category: QTcF >30 and <=60 ms, subjects” value (healthy subjects; [9]) was 0. The “QTcF outliers per change-from-baseline category: QTcF >60 ms, subjects” value (healthy subjects; [9]) was 0, the “QTcF outliers per change-from-baseline category: QTcF >30 and <=60 ms, time points” value (healthy subjects; [10]) was 0 and the “QTcF outliers per change-from-baseline category: QTcF >60 ms, time points” value (healthy subjects; [10]) was 0. The “subjects with treatment-emergent inverted T waves” value (healthy subjects; moxifloxacin treatment period, at 1 time point) was 1 subject, the “lower bound of the 2-sided CI of the predicted QT effect” value [5] was “above 5 ms” and the “ΔΔQRS LS Mean” value ([6]; 0.5 H Post Dose) was 0.1 ms. The “ΔΔQRS LS Mean” value ([6]; 1 H Post Dose) was 0.5 ms, the “ΔΔQRS LS Mean” value ([6]; 1.5 H Post Dose) was 0.3 ms and the “ΔΔQRS LS Mean” value ([6]; 2 H Post Dose) was 0.4 ms. For the same compound, the “ΔΔQRS LS Mean” value ([6]; 2.5 H Post Dose) was 0.4 ms, the “ΔΔQRS LS Mean” value ([6]; 3 H Post Dose) was 0.6 ms and the “ΔΔQRS LS Mean” value ([6]; 4 H Post Dose) was 0.1 ms. For the same compound, the “ΔΔQRS LS Mean” value ([6]; 5 H Post Dose) was 0.7 ms, the “ΔΔQRS LS Mean” value ([6]; 6 H Post Dose) was -0.1 ms and the “ΔΔQRS LS Mean” value ([6]; 8 H Post Dose) was 0.5 ms. The “ΔΔQRS LS Mean” value ([6]; 12 H Post Dose) was 0.1 ms, the “ΔΔQRS LS Mean” value ([6]; 24 H Post Dose) was 0.0 ms and the “ΔΔQRS LS Mean” value ([6]; 36 H Post Dose) was 0.5 ms. For the same compound, the “ΔΔQRS LS Mean” value ([6]; 48 H Post Dose) was 0.6 ms.
